Source: the NIST ThermoML archive (doi:10.1021/je800110r)

Details: 283.15 K, Liquid, Vibrating tube method

CCCCCCCCCC [decane]
Details | mass density [kg/m3]
18830 kPa | 750.4
18862 kPa | 750.3
18886 kPa | 750.4
18919 kPa | 750.4
18953 kPa | 750.3
18975 kPa | 750.3
19001 kPa | 750.4
19028 kPa | 750.5
19063 kPa | 750.5
19088 kPa | 750.4
19116 kPa | 750.6
19142 kPa | 750.5
19169 kPa | 750.6
19195 kPa | 750.6
19222 kPa | 750.6
19245 kPa | 750.6
19296 kPa | 750.6
19437 kPa | 750.6
19472 kPa | 750.7
19500 kPa | 750.8
19524 kPa | 750.7
19561 kPa | 750.8
19589 kPa | 750.8
19627 kPa | 750.9
19660 kPa | 750.9
19683 kPa | 750.9
19715 kPa | 750.9
19742 kPa | 750.9
19762 kPa | 750.9
19786 kPa | 750.9
19807 kPa | 751
19842 kPa | 751
19870 kPa | 751
19891 kPa | 751
19925 kPa | 751
19953 kPa | 751
19975 kPa | 751
19996 kPa | 751
20017 kPa | 751
20039 kPa | 751.1
20064 kPa | 751.2
20082 kPa | 751.2
20101 kPa | 751.1
20121 kPa | 751
20149 kPa | 751.1
20174 kPa | 751.2
20196 kPa | 751.3
20219 kPa | 751.1
20248 kPa | 751.3
20268 kPa | 751.2
20291 kPa | 751.3
20310 kPa | 751.2
20345 kPa | 751.3
20368 kPa | 751.2
20387 kPa | 751.4
20410 kPa | 751.3
20429 kPa | 751.3
20462 kPa | 751.3
20488 kPa | 751.4
20508 kPa | 751.3
20558 kPa | 751.3
20627 kPa | 751.4
20648 kPa | 751.6
20677 kPa | 751.4
20697 kPa | 751.6
20731 kPa | 751.6
20762 kPa | 751.6
20782 kPa | 751.6
20813 kPa | 751.6
20841 kPa | 751.6
20865 kPa | 751.6
20894 kPa | 751.6
20922 kPa | 751.6
20942 kPa | 751.6
20966 kPa | 751.5
20994 kPa | 751.7
21015 kPa | 751.7
21043 kPa | 751.8
21074 kPa | 751.8
21095 kPa | 751.8
21127 kPa | 751.8
21151 kPa | 751.8
21173 kPa | 751.8
21194 kPa | 751.8
21211 kPa | 751.9
21240 kPa | 752
21271 kPa | 751.9
21296 kPa | 751.8
21321 kPa | 751.9
21353 kPa | 751.9
21370 kPa | 751.9
21403 kPa | 751.9
21752 kPa | 752.1
21805 kPa | 752.2
21889 kPa | 752.2
21915 kPa | 752.2
21938 kPa | 752.3
21972 kPa | 752.3
22007 kPa | 752.3
22031 kPa | 752.3
22058 kPa | 752.3
22089 kPa | 752.3
22113 kPa | 752.4
22147 kPa | 752.4
22178 kPa | 752.3
22201 kPa | 752.4
22236 kPa | 752.4
22272 kPa | 752.5
22295 kPa | 752.5
22335 kPa | 752.4
22359 kPa | 752.5
22386 kPa | 752.6
22411 kPa | 752.6
22446 kPa | 752.5
22479 kPa | 752.6
22503 kPa | 752.5
22527 kPa | 752.6
22564 kPa | 752.6
22597 kPa | 752.6
22622 kPa | 752.7
22663 kPa | 752.6
22697 kPa | 752.7
22722 kPa | 752.7
22759 kPa | 752.7
22793 kPa | 752.8
22818 kPa | 752.9
22847 kPa | 752.9
22881 kPa | 752.9
22919 kPa | 752.9
23017 kPa | 752.9
23052 kPa | 752.9
23107 kPa | 753
23142 kPa | 753
23169 kPa | 752.9
23192 kPa | 753.1
23212 kPa | 753.1
23237 kPa | 753.1
23257 kPa | 753.2
23291 kPa | 753.1
23311 kPa | 753.2
23338 kPa | 753.1
23363 kPa | 753.2
23386 kPa | 753.2
23410 kPa | 753.2
23441 kPa | 753.2
23462 kPa | 753.2
23489 kPa | 753.3
23513 kPa | 753.1
23530 kPa | 753.2
23558 kPa | 753.3
23590 kPa | 753.3
23611 kPa | 753.3
23638 kPa | 753.3
23667 kPa | 753.4
23689 kPa | 753.3
23714 kPa | 753.3
23743 kPa | 753.4
23766 kPa | 753.4
23786 kPa | 753.5
23812 kPa | 753.4
23835 kPa | 753.5
23855 kPa | 753.4
23875 kPa | 753.4
23904 kPa | 753.5
23928 kPa | 753.5
23957 kPa | 753.5
23977 kPa | 753.6
24007 kPa | 753.5
24024 kPa | 753.6
24061 kPa | 753.7
24135 kPa | 753.6
24155 kPa | 753.6
24179 kPa | 753.7
24242 kPa | 753.6
24265 kPa | 753.7
24286 kPa | 753.7
24309 kPa | 753.7
24330 kPa | 753.8
24362 kPa | 753.7
24389 kPa | 753.7
24410 kPa | 753.7
24434 kPa | 753.8
24452 kPa | 753.9
24490 kPa | 753.9
24511 kPa | 753.7
24533 kPa | 753.8
24564 kPa | 753.9
24596 kPa | 753.8
24618 kPa | 753.9
24642 kPa | 753.8
24660 kPa | 753.9
24682 kPa | 753.9
24710 kPa | 754
24739 kPa | 753.9
24764 kPa | 753.9
24796 kPa | 754
24819 kPa | 754
24845 kPa | 754.1
24871 kPa | 754.1
24904 kPa | 754.2
24924 kPa | 754.1
24954 kPa | 754.2
24981 kPa | 754.1
25004 kPa | 754.2
25025 kPa | 754.1
25048 kPa | 754
25068 kPa | 754.2
25099 kPa | 754.3
25121 kPa | 754.2
25141 kPa | 754.3
25168 kPa | 754.2
25199 kPa | 754.3
25220 kPa | 754.3
25248 kPa | 754.2
25268 kPa | 754.3
25286 kPa | 754.3
25313 kPa | 754.2
25335 kPa | 754.3
25366 kPa | 754.4
25398 kPa | 754.5
25416 kPa | 754.3
25477 kPa | 754.4
25498 kPa | 754.4
25523 kPa | 754.5
25544 kPa | 754.5
25566 kPa | 754.5
25591 kPa | 754.5
25620 kPa | 754.5
25645 kPa | 754.5
25669 kPa | 754.5
25695 kPa | 754.6
25712 kPa | 754.5
25739 kPa | 754.7
25768 kPa | 754.7
25788 kPa | 754.7
25818 kPa | 754.6
25845 kPa | 754.4
25865 kPa | 754.6
25888 kPa | 754.7
25908 kPa | 754.6
25939 kPa | 754.7
25967 kPa | 754.7
25992 kPa | 754.7
26022 kPa | 754.7
26046 kPa | 754.8
26065 kPa | 754.7
26099 kPa | 754.8
26119 kPa | 754.9
26136 kPa | 754.7
26166 kPa | 754.8
26197 kPa | 754.7
26220 kPa | 754.9
26245 kPa | 754.8
26273 kPa | 754.8
26300 kPa | 754.8
26324 kPa | 754.9
26341 kPa | 755
26368 kPa | 754.9
26389 kPa | 755
26421 kPa | 755
26445 kPa | 755
26466 kPa | 755
26490 kPa | 755
26510 kPa | 755.1
26538 kPa | 755.1
26567 kPa | 755.1
26591 kPa | 755
26624 kPa | 755.2
26652 kPa | 755.2
26677 kPa | 755.2
26694 kPa | 755.2
26726 kPa | 755.2
26754 kPa | 755.3
